Laboratory results reported in ChEMBL document CHEMBL1136688, “Synthesis and SAR of aminoalkoxy-biaryl-4-carboxamides: novel and selective histamine H3 receptor antagonists” (Bioorg Med Chem Lett, 2003).

Experiments:
[1] = target: Histamine H3 receptor (Homo sapiens, UniProt Q9Y5N1); assay: Binding affinity for human recombinant H3 receptor
[2] = target: Histamine H3 receptor (Rattus norvegicus, UniProt Q9QYN8); assay: Binding affinity towards rat cortical H3 receptor
[3] = target: Histamine H2 receptor (Homo sapiens, UniProt P25021); assay: Binding affinity towards human histamine (H2) receptor
[4] = target: Histamine H1 receptor (Homo sapiens, UniProt P35367); assay: Binding affinity towards human histamine (H1) receptor
Histamine H1 receptor, sequence (P35367 whole entry): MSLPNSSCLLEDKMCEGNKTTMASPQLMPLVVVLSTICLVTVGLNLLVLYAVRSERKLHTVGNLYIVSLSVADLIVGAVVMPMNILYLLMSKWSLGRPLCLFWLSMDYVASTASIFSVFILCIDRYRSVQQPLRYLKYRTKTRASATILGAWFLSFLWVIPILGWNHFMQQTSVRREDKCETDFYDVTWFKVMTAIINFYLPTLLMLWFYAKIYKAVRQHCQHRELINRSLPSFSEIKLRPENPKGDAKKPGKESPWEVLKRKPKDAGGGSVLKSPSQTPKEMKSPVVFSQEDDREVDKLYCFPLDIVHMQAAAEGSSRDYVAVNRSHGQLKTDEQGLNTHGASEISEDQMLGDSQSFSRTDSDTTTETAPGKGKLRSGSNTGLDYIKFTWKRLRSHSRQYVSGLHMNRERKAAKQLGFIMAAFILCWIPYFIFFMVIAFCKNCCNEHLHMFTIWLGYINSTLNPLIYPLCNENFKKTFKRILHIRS

Histamine H3 receptor (Homo sapiens, UniProt Q9Y5N1), sequence (Q9Y5N1 whole entry): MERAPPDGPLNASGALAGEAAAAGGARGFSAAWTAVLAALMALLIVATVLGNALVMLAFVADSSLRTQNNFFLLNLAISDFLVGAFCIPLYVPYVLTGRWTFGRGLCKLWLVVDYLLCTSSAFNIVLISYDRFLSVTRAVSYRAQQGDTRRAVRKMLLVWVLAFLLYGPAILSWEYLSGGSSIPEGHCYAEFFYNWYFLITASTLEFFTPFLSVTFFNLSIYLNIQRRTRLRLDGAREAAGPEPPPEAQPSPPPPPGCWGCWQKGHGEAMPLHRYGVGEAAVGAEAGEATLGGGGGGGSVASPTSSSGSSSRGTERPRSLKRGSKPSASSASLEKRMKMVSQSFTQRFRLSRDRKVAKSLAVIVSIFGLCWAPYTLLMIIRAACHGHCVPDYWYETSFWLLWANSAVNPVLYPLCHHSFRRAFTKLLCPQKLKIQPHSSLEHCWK
Histamine H3 receptor (Rattus norvegicus, UniProt Q9QYN8), sequence (Q9QYN8 whole entry): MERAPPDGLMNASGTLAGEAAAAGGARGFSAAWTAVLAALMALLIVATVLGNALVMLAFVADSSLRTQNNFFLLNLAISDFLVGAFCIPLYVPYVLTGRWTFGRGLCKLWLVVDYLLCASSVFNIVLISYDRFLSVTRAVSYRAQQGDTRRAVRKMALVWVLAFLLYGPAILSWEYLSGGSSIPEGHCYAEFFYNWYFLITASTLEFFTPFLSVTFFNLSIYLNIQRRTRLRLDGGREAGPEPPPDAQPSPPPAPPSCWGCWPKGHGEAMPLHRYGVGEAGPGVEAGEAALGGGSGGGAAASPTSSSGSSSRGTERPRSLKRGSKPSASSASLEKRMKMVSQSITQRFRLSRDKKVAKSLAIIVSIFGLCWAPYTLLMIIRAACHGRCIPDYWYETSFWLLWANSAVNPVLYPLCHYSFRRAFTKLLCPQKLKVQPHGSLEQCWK
Histamine H2 receptor, sequence (P25021 whole entry): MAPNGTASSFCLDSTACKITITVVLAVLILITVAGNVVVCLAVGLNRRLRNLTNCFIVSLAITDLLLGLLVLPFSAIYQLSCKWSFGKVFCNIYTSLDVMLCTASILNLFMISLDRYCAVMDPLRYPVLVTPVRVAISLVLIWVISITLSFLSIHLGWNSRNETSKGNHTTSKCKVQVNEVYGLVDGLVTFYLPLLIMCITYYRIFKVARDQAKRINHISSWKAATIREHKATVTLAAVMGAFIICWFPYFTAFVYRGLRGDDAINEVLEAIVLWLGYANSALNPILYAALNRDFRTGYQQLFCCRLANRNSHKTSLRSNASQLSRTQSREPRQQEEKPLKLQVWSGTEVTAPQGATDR

| Ki [1] | Ki [2] | Ki [3] | Ki [4] | SMILES |
| --- | --- | --- | --- | --- |
| 2.4 nM | 8.91 nM | – | – | CCN(CC)CCCOc1ccc(-c2ccc(C(=O)N3CCOCC3)cc2)cc1 |
| 24.5 nM | 112 nM | – | – | CC1CCCN1C(=O)c1ccc(-c2ccc(OCCCN3CCOCC3)cc2)cc1 (configuration not stated) |
| 2.14 nM | 7.24 nM | – | – | CCN(CC)CCCOc1ccc(-c2ccc(C(=O)N3CCCC3C)cc2)cc1 (configuration not stated) |
| 4.68 nM | 3.63 nM | – | – | CC1CCN(CCCOc2ccc(-c3ccc(C(=O)N4[C@@H](C)CC[C@@H]4C)cc3)cc2)CC1 |
| 32.4 nM | 129 nM | – | – | CC(C)NCCCOc1ccc(-c2ccc(C(=O)N3CCOCC3)cc2)cc1 |
| 0.776 nM | – | – | – | CCN(CC)C(=O)c1ccc(-c2ccc(OCCCN3[C@@H](C)CC[C@@H]3C)cc2)cc1 |
| 37.2 nM | 115 nM | – | – | C[C@H]1CC[C@H](C)N1C(=O)c1ccc(-c2ccc(OCCCN3CCOCC3)cc2)cc1 |
| 1.12 nM | 6.61 nM | > 1910 nM | > 1910 nM | O=C(c1ccc(-c2ccc(OCCCN3CCCC3)cc2)cc1)N1CCCC1 |
| 6.17 nM | 16.2 nM | – | – | CCN(CC)CCCOc1ccc(-c2ccc(C(=O)NC(C)C)cc2)cc1 |
| 9.77 nM | 42.7 nM | – | – | CC(C)NCCCOc1ccc(-c2ccc(C(=O)N3CCCC3C)cc2)cc1 (configuration not stated) |
| 40.7 nM | 178 nM | – | – | O=C(c1ccc(-c2ccc(OCCCN3CCOCC3)cc2)cc1)N1CCCC1 |
| 3.89 nM | 29.5 nM | – | – | CC1CCN(C(=O)c2ccc(-c3ccc(OCCCN4CC[C@@H](N(C)C)C4)cc3)cc2)CC1 |
| 7.24 nM | 8.71 nM | – | – | CC1CCN(CCCOc2ccc(-c3ccc(C(=O)N4CCOCC4)cc3)cc2)CC1 |
| 110 nM | 407 nM | – | – | CCN(CC)C(=O)c1ccc(-c2ccc(OCCCNC(C)C)cc2)cc1 |
| 23.4 nM | 70.8 nM | – | – | CC1CCN(C(=O)c2ccc(-c3ccc(OCCCN4CCOCC4)cc3)cc2)CC1 |
| 0.977 nM | – | – | – | C[C@H]1CC[C@H](C)N1CCCOc1ccc(-c2ccc(C(=O)N3[C@@H](C)CC[C@@H]3C)cc2)cc1 |
| 16.2 nM | 97.7 nM | – | – | CCN(CC)C(=O)c1ccc(-c2ccc(OCCCN3CCOCC3)cc2)cc1 |
| 0.603 nM | 2.95 nM | – | – | CC1CCN(C(=O)c2ccc(-c3ccc(OCCCN4[C@@H](C)CC[C@@H]4C)cc3)cc2)CC1 |
| 0.776 nM | 1.02 nM | – | – | CC1CCCN1C(=O)c1ccc(-c2ccc(OCCCN3[C@@H](C)CC[C@@H]3C)cc2)cc1 (some centres not stated) |
| 8.32 nM | 25.7 nM | – | – | CC1CCCN1C(=O)c1ccc(-c2ccc(OCCCN3CC[C@H](O)C3)cc2)cc1 (some centres not stated) |
| 2.88 nM | 18.6 nM | – | – | CN(C)[C@@H]1CCN(CCCOc2ccc(-c3ccc(C(=O)N4CCCC4)cc3)cc2)C1 |
| 5.5 nM | 27.5 nM | – | – | CN(C)[C@@H]1CCN(CCCOc2ccc(-c3ccc(C(=O)N4CCOCC4)cc3)cc2)C1 |
| 229 nM | 219 nM | – | – | CC(C)NCCCOc1ccc(-c2ccc(C(=O)N3[C@@H](C)CC[C@@H]3C)cc2)cc1 |

| Ki [1] | Ki [2] | Ki [3] | Ki [4] | SMILES |
| --- | --- | --- | --- | --- |
| 6.17 nM | 32.4 nM | – | – | O=C(c1ccc(-c2ccc(OCCCN3CC[C@H](O)C3)cc2)cc1)N1CCOCC1 |
| 0.692 nM | 5.13 nM | – | – | C[C@H]1CC[C@H](C)N1CCCOc1ccc(-c2ccc(C(=O)N3CCCC3)cc2)cc1 |
| 4.37 nM | 17.4 nM | – | – | C[C@H]1CC[C@H](C)N1C(=O)c1ccc(-c2ccc(OCCCN3CC[C@H](N(C)C)C3)cc2)cc1 |
| 8.13 nM | 42.7 nM | – | – | CCN(CC)C(=O)c1ccc(-c2ccc(OCCCN3CC[C@H](O)C3)cc2)cc1 |
| 3.02 nM | 12.9 nM | – | – | CCN(CC)CCCOc1ccc(-c2ccc(C(=O)N3CCCC3)cc2)cc1 |
| 5.13 nM | 13.8 nM | – | – | CCN(CC)CCCOc1ccc(-c2ccc(C(=O)N3[C@@H](C)CC[C@@H]3C)cc2)cc1 |
| 8.13 nM | 28.8 nM | – | – | CC(C)N(C)C(=O)c1ccc(-c2ccc(OCCCN3CC[C@H](O)C3)cc2)cc1 |
| 0.851 nM | 2.82 nM | – | – | CC(C)NC(=O)c1ccc(-c2ccc(OCCCN3[C@@H](C)CC[C@@H]3C)cc2)cc1 |
| 18.2 nM | 52.5 nM | – | – | O=C(c1ccc(-c2ccc(OCCCN3CCOCC3)cc2)cc1)N1CCOCC1 |
| 4.79 nM | 9.12 nM | – | – | CCN(CC)C(=O)c1ccc(-c2ccc(OCCCN3CCC(C)CC3)cc2)cc1 |
| 6.92 nM | 28.2 nM | – | – | CCN(CC)C(=O)c1ccc(-c2ccc(OCCCN3CC[C@H](N(C)C)C3)cc2)cc1 |
| 3.63 nM | 10.2 nM | – | – | CC1CCN(CCCOc2ccc(-c3ccc(C(=O)N4CCCC4)cc3)cc2)CC1 |
| 3.72 nM | 2.82 nM | – | – | CC1CCN(CCCOc2ccc(-c3ccc(C(=O)N4CCCC4C)cc3)cc2)CC1 (configuration not stated) |
| 182 nM | 479 nM | – | – | CC1CCN(C(=O)c2ccc(-c3ccc(OCCCNC(C)C)cc3)cc2)CC1 |
| 6.92 nM | 30.9 nM | – | – | CC1CCN(C(=O)c2ccc(-c3ccc(OCCCN4CC[C@H](O)C4)cc3)cc2)CC1 |
| 10.7 nM | 20.9 nM | – | – | CC1CCN(CCCOc2ccc(-c3ccc(C(=O)N4CCC(C)CC4)cc3)cc2)CC1 |
| 3.47 nM | 8.32 nM | – | – | CCN(CC)CCCOc1ccc(-c2ccc(C(=O)N3CCC(C)CC3)cc2)cc1 |
| 11.2 nM | 57.5 nM | – | – | C[C@H]1CC[C@H](C)N1C(=O)c1ccc(-c2ccc(OCCCN3CC[C@H](O)C3)cc2)cc1 |
| 38.9 nM | 135 nM | – | – | CC(C)NC(=O)c1ccc(-c2ccc(OCCCN3CCOCC3)cc2)cc1 |
| 6.46 nM | 33.1 nM | – | – | O=C(c1ccc(-c2ccc(OCCCN3CC[C@H](O)C3)cc2)cc1)N1CCCC1 |
| 6.46 nM | 21.4 nM | – | – | CC1CCCN1C(=O)c1ccc(-c2ccc(OCCCN3CC[C@H](N(C)C)C3)cc2)cc1 (some centres not stated) |
| 2.09 nM | 3.8 nM | – | – | CC1CCN(CCCOc2ccc(-c3ccc(C(=O)NC(C)C)cc3)cc2)CC1 |

| SMILES | Ki [1] | Ki [2] | Ki [3] | Ki [4] |
| --- | --- | --- | --- | --- |
| CC(C)(C)CCC#C[C@@H]1C[C@H]1c1c[nH]cn1 [CIPRALISANT] | 2.14 nM | 0.195 nM | – | – |
